From patent publication US20100298141A1, “SUBSTITUTED PYRIDINE N-OXIDE HERBICIDES” (E. I. DU PONT DE NEMOURS AND COMPANY, priority 2007, published 2010)

What was measured:
morningglory = test: Test A pre-/postemergence greenhouse test; format: in vivo, Ipomoea spp.; details: for Plant response rating, Morningglory: 0 to 100 scale where 0 is no effect and 100 is complete control; for Morningglory plant response rating: 0 to 100 scale
How it was run: (§1)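 Untreated controls served as the reference for visual injury ratings taken about ten days after spraying. The non-phytotoxic solvent/surfactant formulation was applied preemergence to seeded loam and sand and postemergence to plants two to ten cm high.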

cocklebur = test: Test C pre-/postemergence test; format: in vivo, Xanthium strumarium
How it was run: (§2)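 Seeds were planted and treated preemergence with test chemical in a non-phytotoxic solvent mixture containing surfactant. Postemergence applications of the same formulation went onto plants 2 to 18 cm tall (1- to 4-leaf stage). A dash marks no test result.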

kochia = test: Test C pre-/postemergence test; format: in vivo, Kochia scoparia
How it was run: as §2

barnyardgrass [1] = test: Test C flooded paddy test; format: in vivo, Echinochloa crus-galli; details: Flood
How it was run: (§3)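 Under a constant 3 cm flood, test compounds went directly into the paddy water. Following 13 to 15 days of greenhouse growth, treated species and controls were compared by eye.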

pigweed = test: Test C pre-/postemergence test; format: in vivo, Amaranthus retroflexus
How it was run: as §2

Goosegrass = test: Test C pre-/postemergence test; format: in vivo, Eleusin indica
How it was run: as §2

barnyardgrass [2] = test: Test A pre-/postemergence greenhouse test; format: in vivo, Echinochloa crus-galli; details: for Plant response rating, Barnyardgrass: 0 to 100 scale where 0 is no effect and 100 is complete control; for Barnyardgrass plant response rating: 0 to 100 scale
How it was run: as §1

bermudagrass = test: Test C pre-/postemergence test; format: in vivo, Cynodon dactylon
How it was run: as §2

Surinam grass = test: Test C pre-/postemergence test; format: in vivo, Brachiaria decumbens
How it was run: as §2

lambsquarters = test: Test C pre-/postemergence test; format: in vivo, Chenopodium album
How it was run: as §2

[3] = tested on: common (oilseed) sunflower; test: Test C pre-/postemergence test; format: in vivo, Helianthus annuus
How it was run: as §2

soybean = test: Test C pre-/postemergence test; format: in vivo, Glycine max
How it was run: as §2

crabgrass [4] = test: Test C pre-/postemergence test; format: in vivo, Digitaria sanguinalis
How it was run: as §2

crabgrass [5] = test: Test A pre-/postemergence greenhouse test; format: in vivo, Digitaria sanguinalis; details: for Plant response rating, Crabgrass, Large: 0 to 100 scale where 0 is no effect and 100 is complete control; for Crabgrass, Large plant response rating: 0 to 100 scale
How it was run: as §1

Italian ryegrass = test: Test C pre-/postemergence test; format: in vivo, Lolium multiflorum
How it was run: as §2

umbrella sedge = test: Test C flooded paddy test; format: in vivo, Cyperus difformis; details: Flood
How it was run: as §3

giant foxtail = test: Test A pre-/postemergence greenhouse test; format: in vivo, Setaria faberi; details: for Plant response rating, Foxtail, Giant: 0 to 100 scale where 0 is no effect and 100 is complete control; for Foxtail, Giant plant response rating: 0 to 100 scale
How it was run: as §1

[6] = Postemergence, 500 g ai/ha, 0 is no effect, 100 is complete control
[7] = Preemergence, 125 g ai/ha, 0 no effect, 100 complete control
[8] = 62 g ai/ha, Preemergence, scale 0 to 100
[9] = 125 g ai/ha, preemergence, scale 0 (no effect) to 100 (complete control)
[10] = Preemergence, 31 g ai/ha, scale 0 to 100 (0 no effect, 100 complete control)
[11] = preemergence, 250 g ai/ha, scale 0 (no effect) to 100 (complete control)
[12] = 62 g ai/ha, scale 0 to 100 (0 no effect, 100 complete control)
[13] = 250 g ai/ha, scale 0 to 100, 0 no effect, 100 complete control, 13 to 15 days

CCc1cc[n+]([O-])c(S(=O)(=O)Cc2c(C(F)(F)F)nn(C)c2OCC(F)(F)F)c1 [Compound 60]
Plant response rating, Morningglory (morningglory; Postemergence, 125 g ai/ha): 50
Morningglory plant response rating (morningglory; [6]): 60
Morningglory plant response rating (morningglory; [7]): 70
Plant response rating, Morningglory (morningglory; Preemergence, 500 g ai/ha): 100
Cocklebur plant response rating (cocklebur; [8]): 0
Cocklebur plant response rating (cocklebur; [9]): 0
Plant response rating, Cocklebur (cocklebur; [10]): 0
Cocklebur plant response rating (cocklebur; [11]): 0
Kochia plant response rating (kochia; [8]): 100
Kochia plant response rating (kochia; [9]): 100
Plant response rating, Kochia (kochia; [10]): 80
Kochia plant response rating (kochia; [11]): 100
Plant response rating, Barnyardgrass (barnyardgrass [1]; [12]): 20
Plant response rating, Barnyardgrass (barnyardgrass [1]; [13]): 45
Pigweed plant response rating (pigweed; [8]): 100
Pigweed plant response rating (pigweed; [9]): 100
Plant response rating, Pigweed (pigweed; [10]): 100
Pigweed plant response rating (pigweed; [11]): 100
Goosegrass plant response rating (Goosegrass; [8]): 100
Goosegrass plant response rating (Goosegrass; [9]): 100
Plant response rating, Goosegrass (Goosegrass; [10]): 100
Goosegrass plant response rating (Goosegrass; [11]): 100
Plant response rating, Barnyardgrass (barnyardgrass [2]; Postemergence, 125 g ai/ha): 80
Barnyardgrass plant response rating (barnyardgrass [2]; [6]): 90
Barnyardgrass plant response rating (barnyardgrass [2]; [7]): 90
Plant response rating, Barnyardgrass (barnyardgrass [2]; Preemergence, 500 g ai/ha): 100
Bermudagrass plant response rating (bermudagrass; 62 g ai/ha, Preemergence, scale 0 to 100 (0 no effect, 100 complete control)): 100
Bermudagrass plant response rating (bermudagrass; [9]): 100
Plant response rating, Bermudagrass (bermudagrass; [10]): 100
Bermudagrass plant response rating (bermudagrass; [11]): 100
Surinam Grass plant response rating (Surinam grass; [8]): 100
Surinam Grass plant response rating (Surinam grass; [9]): 100
Plant response rating, Surinam Grass (Surinam grass; [10]): 95
Surinam Grass plant response rating (Surinam grass; [11]): 100
Lambsquarters plant response rating (lambsquarters; [8]): 100
Lambsquarters plant response rating (lambsquarters; [9]): 100
Plant response rating, Lambsquarters (lambsquarters; [10]): 100
Lambsquarters plant response rating (lambsquarters; [11]): 100
Sunflower plant response rating [3, 8]: 55
Sunflower plant response rating [3, 9]: 70
Plant response rating, Sunflower [3, 10]: 40
Sunflower plant response rating [3, 11]: 80
Soybean plant response rating (soybean; [8]): 50
Soybean plant response rating (soybean; [9]): 50
Soybean plant response rating (soybean; [11]): 85
Crabgrass, Large plant response rating (crabgrass [4]; [8]): 100
Crabgrass, Large plant response rating (crabgrass [4]; [9]): 100
Plant response rating, Crabgrass, Large (crabgrass [4]; [10]): 100
Crabgrass, Large plant response rating (crabgrass [4]; [11]): 100
Plant response rating, Crabgrass, Large (crabgrass [5]; Postemergence, 125 g ai/ha): 50
Crabgrass, Large plant response rating (crabgrass [5]; [6]): 80
Crabgrass, Large plant response rating (crabgrass [5]; [7]): 90
Plant response rating, Crabgrass, Large (crabgrass [5]; Preemergence, 500 g ai/ha): 100
Ryegrass, Italian plant response rating (Italian ryegrass; [8]): 75
Ryegrass, Italian plant response rating (Italian ryegrass; [9]): 80
Plant response rating, Ryegrass, Italian (Italian ryegrass; [10]): 20
Ryegrass, Italian plant response rating (Italian ryegrass; [11]): 90
Plant response rating, Sedge, Umbrella (umbrella sedge; [12]): 0
Plant response rating, Sedge, Umbrella (umbrella sedge; [13]): 80
Plant response rating, Foxtail, Giant (giant foxtail; Postemergence, 125 g ai/ha): 60
Foxtail, Giant plant response rating (giant foxtail; [6]): 90
Foxtail, Giant plant response rating (giant foxtail; [7]): 100
Plant response rating, Foxtail, Giant (giant foxtail; Preemergence, 500 g ai/ha): 100
